Experimental data: patent US4783410A (priority 1985, dated 1988)
Entries after “also recorded” stand apart in the source; their conditions may differ.

Columns and labels:
[1] = test system: specific target cell lysis of P815 cells by CTL clone G4; assay type: cell-based, murine
[2] = target: CTL serine esterase (G4 extract) (Mus musculus, UniProt P11032); test: biochemical; assay type: biochemical, murine
[3] = test system: specific target cell lysis of P815 cells by CTL clone G4; conditions: cited from earlier work

Sequence of CTL serine esterase (G4 extract) (P11032 29-260): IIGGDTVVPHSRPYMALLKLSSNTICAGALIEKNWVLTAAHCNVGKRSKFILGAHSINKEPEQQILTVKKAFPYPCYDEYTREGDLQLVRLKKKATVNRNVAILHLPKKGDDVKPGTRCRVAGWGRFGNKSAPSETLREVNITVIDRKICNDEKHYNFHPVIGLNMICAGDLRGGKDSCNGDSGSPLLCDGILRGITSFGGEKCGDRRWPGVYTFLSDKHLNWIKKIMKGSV

SMILES | Inhibition of lysis of P815 cells by cloned anti-D^d G4 cells [1] | Inhibition of CTL esterase activity (in words) [2] | Toxicity to G4 cells by 51Cr release or reduced recovery of viable (trypan blue-negative) cells (G4 cells) | Block of CTL cytotoxicity [3] | inhibition at 500 µM ([2]; read-out: Percent Inhibition of esterase activity)
O=S(=O)(F)Cc1ccccc1 [PMSF, phenylmethylsulfonyl fluoride] | clearly inhibits lysis | blocked completely; also recorded: completely inhibitable | no additive toxicity | – | –
Cc1ccc(S(=O)(=O)NC(CCCCN)C(=O)CCl)cc1 (stereo not drawn) [TLCK, N^alpha -tosyl lysyl chloromethyl ketone] | – | not, however, inhibited | – | known to block CTL cytotoxicity | 4.6%
